The results in this text go back to PubChem BioAssay AID330 (DTP/NCI, 2004).

The test system of this test is P388 leukemia ip, CD2F1 mice, survival T/C. In words: NCI In Vivo Anticancer Drug Screen. Data for tumor model P388 Leukemia (intraperitoneal) in CD2F1 (CDF1) mice. The settings on record: endpoint: median survival time, higher = longer survival. Summed up: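 Mice carrying the transplanted tumor received test compound or vehicle. Survival was recorded in each group, and the value is the treated-group measurement divided by that of the vehicle-treated control group.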

Setting [1] is: dose: 60.0 mg/kg/injection, schedule: Q01DX005 (ip), vehicle: saline with Tween-80.
Where [2] appears, read: dose: 120.0 mg/kg/injection, schedule: Q01DX005 (ip), vehicle: saline with Tween-80.
Where [3] appears, read: dose: 240.0 mg/kg/injection, schedule: Q01DX005 (ip), vehicle: saline with Tween-80.
Where [4] appears, read: dose: 60.0 mg/kg/injection, schedule: Q01DX005 (ip), vehicle: Klucel (hydroxypropylcellulose) (HPC).
The mark [5] stands for this setting: dose: 120.0 mg/kg/injection, schedule: Q01DX005 (ip), vehicle: Klucel (hydroxypropylcellulose) (HPC).
[6] abbreviates: dose: 240.0 mg/kg/injection, schedule: Q01DX005 (ip), vehicle: Klucel (hydroxypropylcellulose) (HPC).

Where “and” joins values, the source holds several entries; their conditions need not be identical. Equal values may be shown once. Toxic doses and inconclusive results are not listed.

`C=CCC(C(=O)OC)c1ccc(Cl)cc1` (stereo not given): the T/C (dose: 0.62 mg/kg/injection, schedule: Q01DX009 (ip), vehicle: saline) is 114 % of control; the T/C (dose: 1.25 mg/kg/injection, schedule: Q01DX009 (ip), vehicle: saline) is 98 % of control; the T/C (dose: 2.5 mg/kg/injection, schedule: Q01DX009 (ip), vehicle: saline) is 103 % of control.
Take `Nc1nc2c(c(-c3nc(N)nc4c3CCC4)n1)CCC2`: the T/C is, setting by setting: (dose: 60.0 mg/kg/injection, schedule: Q01DX005 (ip), vehicle: saline) 98 % of control; (dose: 120.0 mg/kg/injection, schedule: Q01DX005 (ip), vehicle: saline) 106 % of control; (dose: 240.0 mg/kg/injection, schedule: Q01DX005 (ip), vehicle: saline) 97 % of control.
As for `COCc1ccccc1-n1nccc1S(C)=O` (stereo not given), the T/C under setting [1] was 106 % of control, the T/C under setting [2] was 98 % of control and the T/C under setting [3] is 106 % of control.
`CN=C(NC)c1ccc(NC(=O)Nc2cccc(NC(=O)Nc3ccc(C(=NC)NC)cc3)c2)cc1`: the T/C reads like this: (dose: 12.5 mg/kg/injection, schedule: Q01DX005 (ip), vehicle: saline with Tween-80) 160 % of control and 177 % of control; (dose: 25.0 mg/kg/injection, schedule: Q01DX005 (ip), vehicle: saline with Tween-80) 195 % of control and 206 % of control.
On to `CCN(CC)CCSc1nnc(-c2ccc3c(c2)OCO3)o1`, for which the T/C was 99 % of control (dose: 50.0 mg/kg/injection, schedule: Q04DX003 (ip), vehicle: water); 99 % of control (dose: 100.0 mg/kg/injection, schedule: Q04DX003 (ip), vehicle: water); 101 % of control (dose: 200.0 mg/kg/injection, schedule: Q04DX003 (ip), vehicle: water).
In the case of `COc1ccc(-c2c([O-])oc(-c3ccccc3)[n+]2C)cc1`, the T/C is 98 % of control under setting [1], 96 % of control under setting [2] and 98 % of control under setting [3].
`NNc1ccc(N(CCO)CCO)nn1`: the T/C runs as follows: (dose: 50.0 mg/kg/injection, schedule: Q01DX009 (ip), vehicle: saline) 93 % of control; (dose: 100.0 mg/kg/injection, schedule: Q01DX009 (ip), vehicle: saline) 100 % of control; (dose: 200.0 mg/kg/injection, schedule: Q01DX009 (ip), vehicle: saline) 105 % of control.
Consider `CNC(=O)Oc1ccc(Nc2ccccc2)cc1`, for which the T/C was 105 % of control under setting [4], 99 % of control under setting [5] and 97 % of control under setting [6].
As to `FC(F)(F)c1c[nH]cc1C(F)(F)F`, under “dose: 50.0 mg/kg/injection, schedule: Q04DX002 (ip), vehicle: Klucel (hydroxypropylcellulose) (HPC)”, the T/C is 109 % of control.
For the compound `COC(=O)C1=C(C2=C(C(=O)OC)CCC2)CCC1`, the T/C was 93 % of control (dose: 100.0 mg/kg/injection, schedule: Q04DX002 (ip), vehicle: saline with Tween-80); 97 % of control (dose: 200.0 mg/kg/injection, schedule: Q04DX002 (ip), vehicle: saline with Tween-80); 100 % of control (dose: 400.0 mg/kg/injection, schedule: Q04DX002 (ip), vehicle: saline with Tween-80).
With `CC1=C(CCC(C)CO)OC2CC3C4CCC5CC(O)CCC5(C)C4CCC3(C)C12` (stereo not given), the T/C was 90 % of control and 95 % of control (dose: 25.0 mg/kg/injection, schedule: Q01DX009 (ip), vehicle: suspension in saline); 96 % of control (dose: 50.0 mg/kg/injection, schedule: Q01DX009 (ip), vehicle: suspension in saline); 88 % of control and 94 % of control (dose: 100.0 mg/kg/injection, schedule: Q01DX009 (ip), vehicle: suspension in saline); 87 % of control and 89 % of control (dose: 200.0 mg/kg/injection, schedule: Q01DX009 (ip), vehicle: suspension in saline).
As to `COC(=O)c1cc(NC(=O)NNC(=O)c2ccncc2)cc(C(=O)OC)c1`, the T/C is, setting by setting: (dose: 12.5 mg/kg/injection, schedule: Q01DX009 (ip), vehicle: Klucel (hydroxypropylcellulose) (HPC)) 100 % of control; (dose: 25.0 mg/kg/injection, schedule: Q01DX009 (ip), vehicle: Klucel (hydroxypropylcellulose) (HPC)) 98 % of control; (dose: 50.0 mg/kg/injection, schedule: Q01DX009 (ip), vehicle: Klucel (hydroxypropylcellulose) (HPC)) 116 % of control and 98 % of control; (dose: 100.0 mg/kg/injection, schedule: Q01DX009 (ip), vehicle: Klucel (hydroxypropylcellulose) (HPC)) 90 % of control.
For `Cc1ccc(S(=O)(=O)OCCN(CCOS(=O)(=O)c2ccc(C)cc2)c2ccc(C=O)cc2)cc1`, the T/C (dose: 0.78 mg/kg/injection, schedule: Q04DX003 (ip), vehicle: saline with Tween-80) was 100 % of control; the T/C (dose: 1.56 mg/kg/injection, schedule: Q04DX003 (ip), vehicle: saline with Tween-80) is 113 % of control; the T/C (dose: 3.13 mg/kg/injection, schedule: Q04DX003 (ip), vehicle: saline with Tween-80) was 100 % of control; the T/C (dose: 12.5 mg/kg/injection, schedule: Q04DX003 (ip), vehicle: saline with Tween-80) was 154 % of control; the T/C (dose: 25.0 mg/kg/injection, schedule: Q04DX003 (ip), vehicle: saline with Tween-80) was 159 % of control; the T/C (dose: 66.0 mg/kg/injection, schedule: Q04DX003 (ip), vehicle: saline with Tween-80) is 158 % of control. Also, the T/C reads like this: (dose: 100.0 mg/kg/injection, schedule: Q04DX003 (ip), vehicle: saline with Tween-80) 170 % of control and 172 % of control and 187 % of control; (dose: 150.0 mg/kg/injection, schedule: Q04DX003 (ip), vehicle: saline with Tween-80) 183 % of control; (dose: 200.0 mg/kg/injection, schedule: Q01DX009 (ip), vehicle: saline with Tween-80) 95 % of control; (dose: 200.0 mg/kg/injection, schedule: Q04DX003 (ip), vehicle: saline with Tween-80) 162 % of control.
`COc1cc2c(cc1OC)C1CC(CC(N)=O)(C(N)=O)CCN1CC2` (stereo not given): the T/C is 97 % of control (dose: 50.0 mg/kg/injection, schedule: Q01DX005 (ip), vehicle: saline with Tween-80); 94 % of control (dose: 100.0 mg/kg/injection, schedule: Q01DX005 (ip), vehicle: saline with Tween-80); 90 % of control (dose: 200.0 mg/kg/injection, schedule: Q01DX005 (ip), vehicle: saline with Tween-80).
On to `CC[C@@]1(O)C(=O)OCc2c1cc1n(c2=O)Cc2cc3c(OC)cccc3nc2-1`, for which the T/C is 115 % of control (dose: 0.39 mg/kg/injection, schedule: Q04DX003 (ip), vehicle: other); 217 % of control (dose: 1.0 mg/kg/injection, schedule: Q01DX009 (ip), vehicle: saline with Tween-80); 181 % of control and 192 % of control (dose: 1.5 mg/kg/injection, schedule: Q01DX009 (ip), vehicle: saline with Tween-80); 100 % of control (dose: 2.25 mg/kg/injection, schedule: Q01DX009 (ip), vehicle: saline with Tween-80); 103 % of control (dose: 3.0 mg/kg/injection, schedule: Q01DX009 (ip), vehicle: saline with Tween-80); 191 % of control (dose: 3.13 mg/kg/injection, schedule: Q04DX003 (ip), vehicle: other). Moreover, where the note is “dose: 6.25 mg/kg/injection, schedule: Q04DX003 (ip), vehicle: other”, the T/C is 90 % of control.
Turning to `COC(=O)C1C2CCC1C2` (stereo not given), the T/C (dose: 25.0 mg/kg/injection, schedule: Q01DX009 (ip), vehicle: other) was 97 % of control; the T/C (dose: 50.0 mg/kg/injection, schedule: Q01DX009 (ip), vehicle: other) was 110 % of control; the T/C (dose: 100.0 mg/kg/injection, schedule: Q01DX009 (ip), vehicle: other) is 105 % of control; the T/C (dose: 200.0 mg/kg/injection, schedule: Q01DX009 (ip), vehicle: other) was 107 % of control; the T/C (dose: 400.0 mg/kg/injection, schedule: Q01DX009 (ip), vehicle: other) is 110 % of control.
With `CCOC(=O)C1=C(C(=O)c2ccc(OC)cc2)C(c2c(Cl)cccc2Cl)C(C(=O)c2ccc(OC)cc2)=C(C(=O)OCC)N1`, the T/C runs as follows: (dose: 30.0 mg/kg/injection, schedule: Q01DX005 (ip), vehicle: saline with Tween-80) 86 % of control; under setting [1], 102 % of control and 93 % of control; under setting [2], 94 % of control; under setting [3], 93 % of control.
As to `COc1ccc(C2=C(Cl)C(=O)N(c3ccc(O)cc3)C(=O)C2(Cl)Cl)cc1`, the T/C (dose: 100.0 mg/kg/injection, schedule: Q04DX002 (ip), vehicle: Klucel (hydroxypropylcellulose) (HPC)) is 106 % of control; the T/C (dose: 200.0 mg/kg/injection, schedule: Q04DX002 (ip), vehicle: Klucel (hydroxypropylcellulose) (HPC)) is 107 % of control; the T/C (dose: 400.0 mg/kg/injection, schedule: Q04DX002 (ip), vehicle: Klucel (hydroxypropylcellulose) (HPC)) is 116 % of control.
For `O=c1[nH]c2c([N+](=O)[O-])cc(Cl)cc2nc1/C=C(\O)c1cccc2ccccc12`, the T/C reads like this: under setting [4], 101 % of control; under setting [5], 102 % of control; under setting [6], 105 % of control.
